Experimental data reported in ChEMBL document CHEMBL4011597, “Synthesis, screening and docking of fused pyrano[3,2-d]pyrimidine derivatives as xanthine oxidase inhibitor” (Eur J Med Chem, 2017).

Columns and labels:
[1] = target: T1, Xanthine dehydrogenase/oxidase (Bos taurus, UniProt P80457); assay: Inhibition of bovine xanthine oxidase assessed as reduction in uric acid formation at 100 uM using xanthine as substrate pretreated for 5 mins followed by substrate addition measured by UV-vis spectrophotometric method relative to control; conditions: cattle
[2] = target: T1, Xanthine dehydrogenase/oxidase; assay: Inhibition of bovine xanthine oxidase assessed as reduction in uric acid formation at 1 uM using xanthine as substrate pretreated for 5 mins followed by substrate addition measured by UV-vis spectrophotometric method relative to control; conditions: cattle
[3] = target: T1, Xanthine dehydrogenase/oxidase; assay: Inhibition of bovine xanthine oxidase assessed as reduction in uric acid formation at 10 uM using xanthine as substrate pretreated for 5 mins followed by substrate addition measured by UV-vis spectrophotometric method relative to control; conditions: cattle
[4] = target: T1, Xanthine dehydrogenase/oxidase; assay: Inhibition of bovine xanthine oxidase assessed as reduction in uric acid formation using xanthine as substrate pretreated for 5 mins followed by substrate addition measured by UV-vis spectrophotometric method

T1 sequence (P80457 whole entry): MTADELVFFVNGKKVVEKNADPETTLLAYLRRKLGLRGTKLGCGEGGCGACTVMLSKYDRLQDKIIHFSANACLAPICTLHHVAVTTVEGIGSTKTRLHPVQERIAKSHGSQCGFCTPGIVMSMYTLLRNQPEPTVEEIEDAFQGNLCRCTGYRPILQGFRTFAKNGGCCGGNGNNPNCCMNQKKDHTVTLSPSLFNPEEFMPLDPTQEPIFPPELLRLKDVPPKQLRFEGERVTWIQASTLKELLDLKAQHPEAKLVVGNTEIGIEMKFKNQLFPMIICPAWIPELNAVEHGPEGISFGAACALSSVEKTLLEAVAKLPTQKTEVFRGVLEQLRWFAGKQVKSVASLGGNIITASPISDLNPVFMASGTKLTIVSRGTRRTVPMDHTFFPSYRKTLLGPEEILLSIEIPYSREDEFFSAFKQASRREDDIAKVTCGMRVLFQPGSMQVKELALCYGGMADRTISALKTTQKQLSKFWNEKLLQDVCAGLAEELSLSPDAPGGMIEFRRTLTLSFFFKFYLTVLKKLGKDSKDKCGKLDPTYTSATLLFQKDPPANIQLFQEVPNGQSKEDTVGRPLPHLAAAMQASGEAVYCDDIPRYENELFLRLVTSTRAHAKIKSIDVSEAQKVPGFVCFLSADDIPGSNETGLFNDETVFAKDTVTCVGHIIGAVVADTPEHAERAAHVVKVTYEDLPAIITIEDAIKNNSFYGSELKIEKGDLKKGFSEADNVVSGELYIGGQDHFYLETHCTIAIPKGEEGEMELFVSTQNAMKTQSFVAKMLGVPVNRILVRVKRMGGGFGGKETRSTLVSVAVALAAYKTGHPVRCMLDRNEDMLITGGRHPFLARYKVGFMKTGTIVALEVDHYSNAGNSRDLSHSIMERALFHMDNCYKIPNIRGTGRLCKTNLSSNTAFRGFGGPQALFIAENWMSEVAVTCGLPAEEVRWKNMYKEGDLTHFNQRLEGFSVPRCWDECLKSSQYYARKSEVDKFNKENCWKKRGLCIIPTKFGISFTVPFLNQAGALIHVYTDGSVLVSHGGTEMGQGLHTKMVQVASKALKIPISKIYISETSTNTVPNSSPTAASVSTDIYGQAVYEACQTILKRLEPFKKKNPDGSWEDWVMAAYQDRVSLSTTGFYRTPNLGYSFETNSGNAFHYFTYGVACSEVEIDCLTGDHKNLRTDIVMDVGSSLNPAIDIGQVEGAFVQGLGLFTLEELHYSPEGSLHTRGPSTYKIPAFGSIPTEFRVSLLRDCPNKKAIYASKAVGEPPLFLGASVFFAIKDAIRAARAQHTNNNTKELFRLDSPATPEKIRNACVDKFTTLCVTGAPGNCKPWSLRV

Row | SMILES | inhibition at 100 µM [1] | inhibition at 1 µM [2] | inhibition at 10 µM [3] | IC50 [4]
1 | COc1ccc(Nc2ncnc3c2C(c2cccc(Cl)c2)c2c(n[nH]c2C)O3)cc1 (centres undefined) | 33.1% |  |  | 
2 | COc1ccc(Nc2ncnc3c2C(c2cc(OC)c(OC)c(OC)c2)c2c(c(=O)oc4ccccc24)O3)cc1 (centres undefined) | 74.5% | 26.2% | 37.2% | 42 µM
3 | COc1ccc(Nc2ncnc3c2C(c2cc(OC)c(OC)c(OC)c2)c2c(n[nH]c2C)O3)cc1 (centres undefined) | 47.9% |  |  | 
4 | COc1ccc(Nc2ncnc3c2C(c2cccc(O)c2)c2c(ccc4ccccc24)O3)cc1 (centres undefined) | 28.1% |  |  | 
5 | COc1ccc(Nc2ncnc3c2C(c2cccc(C)c2)c2c(c(=O)oc4ccccc24)O3)cc1 (centres undefined) | 78.2% | 28.7% | 39.1% | 37 µM
6 | COc1ccc(Nc2ncnc3c2C(c2cc(OC)c(OC)c(OC)c2)c2ccc4ccccc4c2O3)cc1 (centres undefined) | 25.2% |  |  | 
7 | COc1ccc(Nc2ncnc3c2C(c2cccs2)c2c(c(=O)oc4ccccc24)O3)cc1 (centres undefined) | 58.8% |  |  | 
8 | COc1ccc(Nc2ncnc3c2C(c2cccs2)C2=C(CCCC2=O)O3)cc1 (centres undefined) | 59.1% |  |  | 
9 | COc1ccc(Nc2ncnc3c2C(c2ccc(O)cc2)c2ccc4ccccc4c2O3)cc1 (centres undefined) | 28.6% |  |  | 
10 | COc1ccc(Nc2ncnc3c2C(c2cccc4ccccc24)c2c(c(=O)oc4ccccc24)O3)cc1 (centres undefined) | 10% |  |  | 
11 | COc1ccc(Nc2ncnc3c2C(c2ccc(Cl)cc2)c2c(ccc4ccccc24)O3)cc1 (centres undefined) | 17.2% |  |  | 
12 | COc1ccc(Nc2ncnc3c2C(c2cccc([N+](=O)[O-])c2)c2ccc4ccccc4c2O3)cc1 (centres undefined) | 13% |  |  | 
13 | COc1ccc(Nc2ncnc3c2C(c2ccc(O)cc2)c2c(c(=O)oc4ccccc24)O3)cc1 (centres undefined) | 82.4% | 30.9% | 41.2% | 30 µM
14 | COc1ccc(Nc2ncnc3c2C(c2ccc(F)cc2)c2ccc4ccccc4c2O3)cc1 (centres undefined) | 19% |  |  | 
15 | COc1ccc(Nc2ncnc3c2C(c2ccncc2)c2c(n[nH]c2C)O3)cc1 (centres undefined) | 15.1% |  |  | 
16 | COc1ccc(Nc2ncnc3c2C(c2ccc([N+](=O)[O-])cc2)c2c(ccc4ccccc24)O3)cc1 (centres undefined) | 11% |  |  | 
17 | COc1ccc(Nc2ncnc3c2C(c2ccccc2OC)c2c(c(=O)oc4ccccc24)O3)cc1 (centres undefined) | 83.6% | 30.2% | 41.1% | 29 µM
18 | COc1ccc(Nc2ncnc3c2C(c2cccc4ccccc24)C2=C(CCCC2=O)O3)cc1 (centres undefined) | 12.1% |  |  | 
19 | COc1ccc(Nc2ncnc3c2C(c2ccccc2OC)c2c(n[nH]c2C)O3)cc1 (centres undefined) | 55.2% |  |  | 
20 | COc1ccc(Nc2ncnc3c2C(c2ccccc2)c2c(ccc4ccccc24)O3)cc1 (centres undefined) | 20.2% |  |  | 
21 | COc1ccc(Nc2ncnc3c2C(c2ccccc2)c2c(n[nH]c2C)O3)cc1 (centres undefined) | 38.1% |  |  | 
22 | COc1ccc(Nc2ncnc3c2C(c2ccc(O)c(O)c2)c2ccc4ccccc4c2O3)cc1 (centres undefined) | 36.5% |  |  | 
23 | COc1ccc(Nc2ncnc3c2C(c2ccc([N+](=O)[O-])cc2)c2c(n[nH]c2C)O3)cc1 (centres undefined) | 25.7% |  |  | 
24 | COc1ccc(Nc2ncnc3c2C(c2ccncc2)c2c(c(=O)oc4ccccc24)O3)cc1 (centres undefined) | 45.1% |  |  | 
25 | COc1ccc(Nc2ncnc3c2C(c2ccc(F)cc2)c2c(ccc4ccccc24)O3)cc1 (centres undefined) | 19.6% |  |  | 

Row | SMILES | inhibition at 100 µM [1] | inhibition at 1 µM [2] | inhibition at 10 µM [3] | IC50 [4]
26 | COc1ccc(Nc2ncnc3c2C(c2ccc(Br)cc2)c2c(ccc4ccccc24)O3)cc1 (centres undefined) | 16.5% |  |  | 
27 | COc1ccc(Nc2ncnc3c2C(c2cccc(Cl)c2)c2ccc4ccccc4c2O3)cc1 (centres undefined) | 17.1% |  |  | 
28 | COc1ccc(Nc2ncnc3c2C(c2cccc([N+](=O)[O-])c2)c2c(n[nH]c2C)O3)cc1 (centres undefined) | 28.9% |  |  | 
29 | COc1ccc(Nc2ncnc3c2C(c2ccccc2OC)c2c(ccc4ccccc24)O3)cc1 (centres undefined) | 30.1% |  |  | 
30 | COc1ccc(Nc2ncnc3c2C(c2ccc(OC)c(OC)c2)c2c(c(=O)oc4ccccc24)O3)cc1 (centres undefined) | 94% | 36.7% | 48% | 17 µM
31 | COc1ccc(Nc2ncnc3c2C(c2ccc(O)cc2)c2c(n[nH]c2C)O3)cc1 (centres undefined) | 52.1% |  |  | 
32 | COc1ccc(Nc2ncnc3c2C(c2ccc(OC)c(OC)c2)c2c(ccc4ccccc24)O3)cc1 (centres undefined) | 39.4% |  |  | 
33 | COc1ccc(Nc2ncnc3c2C(c2ccc(OC)cc2)c2ccc4ccccc4c2O3)cc1 (centres undefined) | 31.1% |  |  | 
34 | COc1ccc(Nc2ncnc3c2C(c2ccc(O)c(OC)c2)c2c(c(=O)oc4ccccc24)O3)cc1 (centres undefined) | 92.3% | 33.2% | 47.2% | 15 µM
35 | COc1ccc(Nc2ncnc3c2C(c2cccc(C)c2)c2ccc4ccccc4c2O3)cc1 (centres undefined) | 21.8% |  |  | 
36 | COc1ccc(Nc2ncnc3c2C(c2ccc(F)cc2)c2c(c(=O)oc4ccccc24)O3)cc1 (centres undefined) | 70.2% | 24.5% | 35.1% | 50 µM
37 | COc1ccc(Nc2ncnc3c2C(c2cc4ccccc4[nH]2)c2c(c(=O)oc4ccccc24)O3)cc1 (centres undefined) | 18.4% |  |  | 
38 | COc1ccc(Nc2ncnc3c2C(c2cccc4ccccc24)c2c(n[nH]c2C)O3)cc1 (centres undefined) | 10.1% |  |  | 
39 | COc1ccc(Nc2ncnc3c2C(c2cccc(O)c2)c2ccc4ccccc4c2O3)cc1 (centres undefined) | 27.4% |  |  | 
40 | COc1ccc(Nc2ncnc3c2C(c2cccc(C)c2)c2c(n[nH]c2C)O3)cc1 (centres undefined) | 43.6% |  |  | 
41 | COc1ccc(Nc2ncnc3c2C(c2ccc(O)c(O)c2)c2c(ccc4ccccc24)O3)cc1 (centres undefined) | 37.2% |  |  | 
42 | COc1ccc(Nc2ncnc3c2C(c2cccc(Cl)c2)c2c(ccc4ccccc24)O3)cc1 (centres undefined) | 17.6% |  |  | 
43 | COc1ccc(Nc2ncnc3c2C(c2ccc(Br)cc2)c2ccc4ccccc4c2O3)cc1 (centres undefined) | 15.5% |  |  | 
44 | COc1ccc(Nc2ncnc3c2C(c2ccc(Cl)cc2)c2c(n[nH]c2C)O3)cc1 (centres undefined) | 32.2% |  |  | 
45 | COc1ccc(Nc2ncnc3c2C(c2cccc(O)c2)c2c(c(=O)oc4ccccc24)O3)cc1 (centres undefined) | 81.3% | 28.5% | 39.5% | 35 µM
46 | COc1ccc(Nc2ncnc3c2C(c2ccc(O)cc2)c2c(ccc4ccccc24)O3)cc1 (centres undefined) | 29.1% |  |  | 
47 | COc1ccc(Nc2ncnc3c2C(c2cc4ccccc4[nH]2)C2=C(CCCC2=O)O3)cc1 (centres undefined) | 19.3% |  |  | 
48 | COc1ccc(Nc2ncnc3c2C(c2ccc(OC)c(OC)c2)c2ccc4ccccc4c2O3)cc1 (centres undefined) | 39.7% |  |  | 
49 | COc1ccc(Nc2ncnc3c2C(c2ccncc2)C2=C(CCCC2=O)O3)cc1 (centres undefined) | 46% |  |  | 
50 | COc1ccc(Nc2ncnc3c2C(c2ccc(O)c(OC)c2)c2c(n[nH]c2C)O3)cc1 (centres undefined) | 65.5% |  | 32.5% | 60 µM

Row | SMILES | inhibition at 100 µM [1] | inhibition at 1 µM [2] | inhibition at 10 µM [3] | IC50 [4]
51 | COc1ccc(Nc2ncnc3c2C(c2ccc(Br)cc2)c2c(c(=O)oc4ccccc24)O3)cc1 (centres undefined) | 65.8% | 22.2% | 32.4% | 60 µM
52 | COc1ccc(Nc2ncnc3c2C(c2ccc(O)c(OC)c2)c2ccc4ccccc4c2O3)cc1 (centres undefined) | 33.2% |  |  | 
53 | COc1ccc(Nc2ncnc3c2C(c2ccccc2)c2ccc4ccccc4c2O3)cc1 (centres undefined) | 20.5% |  |  | 
54 | COc1ccc(Nc2ncnc3c2C(c2cccc(C)c2)c2c(ccc4ccccc24)O3)cc1 (centres undefined) | 22.6% |  |  | 
55 | COc1ccc(Nc2ncnc3c2C(c2ccc([N+](=O)[O-])cc2)c2ccc4ccccc4c2O3)cc1 (centres undefined) | 10.5% |  |  | 
56 | COc1ccc(Nc2ncnc3c2C(c2cc4ccccc4[nH]2)c2c(n[nH]c2C)O3)cc1 (centres undefined) | 11.2% |  |  | 
57 | COc1ccc(Nc2ncnc3c2C(c2ccc(OC)cc2)c2c(n[nH]c2C)O3)cc1 (centres undefined) | 58.4% | 20.1% | 29.3% | 
58 | COc1ccc(Nc2ncnc3c2C(c2ccc(OC)cc2)c2c(c(=O)oc4ccccc24)O3)cc1 (centres undefined) | 85.3% | 32.4% | 43.7% | 24 µM
59 | COc1ccc(Nc2ncnc3c2C(c2ccc(Br)cc2)c2c(n[nH]c2C)O3)cc1 (centres undefined) | 30.3% |  |  | 
60 | COc1ccc(Nc2ncnc3c2C(c2ccc(Cl)cc2)c2c(c(=O)oc4ccccc24)O3)cc1 (centres undefined) | 67.2% | 21.3% | 33.5% | 56 µM
61 | COc1ccc(Nc2ncnc3c2C(c2cccc(O)c2)c2c(n[nH]c2C)O3)cc1 (centres undefined) | 50.1% |  |  | 
62 | COc1ccc(Nc2ncnc3c2C(c2cc(OC)c(OC)c(OC)c2)c2c(ccc4ccccc24)O3)cc1 (centres undefined) | 25.8% |  |  | 
63 | COc1ccc(Nc2ncnc3c2C(c2ccccc2)c2c(c(=O)oc4ccccc24)O3)cc1 (centres undefined) | 72.8% | 25.1% | 36.4% | 40 µM
64 | COc1ccc(Nc2ncnc3c2C(c2cccc(Cl)c2)c2c(c(=O)oc4ccccc24)O3)cc1 (centres undefined) | 69.6% | 23.2% | 34.5% | 54 µM
65 | COc1ccc(Nc2ncnc3c2C(c2ccccc2OC)c2ccc4ccccc4c2O3)cc1 (centres undefined) | 30% |  |  | 
66 | COc1ccc(Nc2ncnc3c2C(c2cccs2)c2c(n[nH]c2C)O3)cc1 (centres undefined) | 19.8% |  |  | 
67 | COc1ccc(Nc2ncnc3c2C(c2ccc(F)cc2)c2c(n[nH]c2C)O3)cc1 (centres undefined) | 35.7% |  |  | 
68 | COc1ccc(Nc2ncnc3c2C(c2ccc(O)c(OC)c2)c2c(ccc4ccccc24)O3)cc1 (centres undefined) | 33.8% |  |  | 
69 | COc1ccc(Nc2ncnc3c2C(c2cccc([N+](=O)[O-])c2)c2c(ccc4ccccc24)O3)cc1 (centres undefined) | 13.3% |  |  | 
70 | COc1ccc(Nc2ncnc3c2C(c2ccc(Cl)cc2)c2ccc4ccccc4c2O3)cc1 (centres undefined) | 16.7% |  |  | 
71 | COc1ccc(Nc2ncnc3c2C(c2ccc(O)c(O)c2)c2c(c(=O)oc4ccccc24)O3)cc1 (centres undefined) | 90.4% | 35% | 45.9% | 18 µM
72 | COc1ccc(Nc2ncnc3c2C(c2ccc(OC)cc2)c2c(ccc4ccccc24)O3)cc1 (centres undefined) | 32.6% |  |  | 
73 | O=c1cc(-c2ccc(O)cc2)oc2cc(O)cc(O)c12 [APIGENIN] |  |  |  | 10.2 µM
